US10946024B2, “Method for treating cancer” (Epizyme, Inc., priority 2014, dated 2021)
“Also recorded” adds a separate entry of the source.

Experiments:
HS-SY-II cells = assay: Adherent cell line long-term (14-day) proliferation assay, CellTiter-Glo; type: cell-based, human; details: 14-day long-term proliferation assay
Procedure: (§1) 96-well plating for 7 day assay: For each adherent cell line, plated cells in a volume of 100 μL in 96-well plates, to be treated in triplicate, either in the evening (to treat with compound the following day) or in morning (to treat with compound in the evening), to allow cells to attach to plates before compound treatment.
(§2) 6-well plates to be split for 7-14 day assay: Plated 2 mL of cells at the correct density in each well of the 6-well plate. Calculated the correct density from the 96-well plate growth curve by multiplying the 96-well density by 30. The factor 30 came from growth area of the 6-well plate divided by the growth area of the 96-well plate (9.5 cm^2/0.32 cm^2=29.7, rounded up to 30), which corresponds to 30-fold more surface area in a 6-well vs. a 96-well plate.
(§3) Day 0: Treated with compound or DMSO by removing media and adding back either 100 μL (for 96-well plate) or 2 mL (for 6-well plate) media with the correct dilutions of compound/DMSO. Table 1 includes an example of 96-well plate map. Plates were incubated for 96 hours.
(§4) Read one 96-well plate with CellTiter-Glo® for a Day 0 reading (media change not necessary for this plate).
(§5) Day 4: Read one 96-well plate with CellTiter-Glo® for a Day 4 reading (media change not necessary for this plate before reading). Replaced media with fresh media containing compound on Day 4 in 96-well plates and 6-well plates.
(§6) Day 7: read final 96-well plate with CellTiter-Glo®.
(§7) Counted individual wells of 6-well plates, and replated cells to initial plating density in 96-well plates, as described above.
(§8) Repeated steps for Days 0-7 for Days 7-14 of the proliferation assay.
(§9) Particularly, approximately 12 hours before compound treatment, HS-SY-II or SW982 cells were plated at the density of 24,000 cells/well and 7,500 cells/well, respectively in 6-well plates. On day 0, cells were treated with either DMSO or compound starting at 10 μmol/L and decreasing in fourfold dilutions. On day 7, the cells in 6-well plates were trypsinized, counted by TC10 automated cell counter (Bio-Rad, Richmond, Calif.) and replated at the density of 800 cells/well and 250 cells/well for HS-SY-II and SW982, respectively in 96-well plates in triplicate. The cells were allowed to adhere to the plate overnight, and treated with either DMSO or compound as on Day 0. On days 0, 7, 11, and 14, cell viability was determined by CellTiter-Glo® Luminescent Cell Viability Assay (Promega) with EnVision 2103 Multilabel Reader (Perkin-Elmer, Wellesley, Mass.). Compound/media was changed with new one on Day 4 and 11. The ratios of the measured values on Days 7, 11, and 14 to that of day 7 were used to plot proliferation from day 7 to day 14, and to calculate the IC50 values on Day 14. […]

SW982 cells = assay: as above; type: cell-based, human; details: SW982, 14-day long-term proliferation assay
Procedure: as §1, §2, §3, §4, §5, §6, §7, §8, §9

[1] = system: ATF3, EGR1, CDKN2A expression in HS-SY-II cells; assay: Gene expression changes in vitro by RT-PCR, normalized to GAPDH; type: cell-based, human; parameters: key to ATF3 expression change, significance 0 uM vs. / EGR1 expression change, significance 0 uM vs. / CDKN2A expression change, significance 0 uM vs.: *: Asterisks mean significant changes compared to levels of 0 μM-treated groups.; **: Asterisks mean significant changes compared to levels of 0 μM-treated groups.; ***: Asterisks mean significant changes compared to levels of 0 μM-treated groups.; ****: Asterisks mean significant changes compared to levels of 0 μM-treated groups
Procedure: HS-SY-II and SW982 cells were treated with EZH2 inhibitors (Compound A or EPZ-011989) and collected at the indicated time points. Total RNA isolation and cDNA synthesis were performed using the TaqMan Gene Expression Cells-to-CT kit (4399002, Life technologies) according to the manufacturer's protocol. ATF3, EGR1, CDKN2A and GAPDH expression were analyzed by using the TaqMan Gene Expression Assays (Life technologies, 4331182) and the TaqMan Probes (Hs00231069_m1, Hs00152928_m1, Hs00233365_m1, and Hs99999905_m1, respectively).

[2] = Plasma concentrations in HS-SY-II xenograft model (LC/MS/MS); type: in vivo, mice; details: oral twice daily for 7 days; 5 minutes before and 3 hours after the last dose
Procedure: HS-SY-II cells were harvested during mid-log phase growth, and resuspended in Hank balanced salt solution with 50% Matrigel (BD Biosciences). Balb/C-nu mice (Charles River Laboratories Japan) received 1×10^7 cells (0.1 mL cell suspension) subcutaneously in the right flank. Mice carrying tumors of approximately 200 mm^3 (31 days after injection) were sorted into treatment groups with similar mean tumor volumes. Compound A or vehicle (0.5% MC+0.1% Tween-80 in water) was administered at the indicated doses on twice a day for 7 days by oral gavage. Each dose was delivered in a volume of 0.2 mL/20 g mouse (10 mL/kg), and adjusted for the last recorded weight of individual animals. Peripheral blood samples were collected at approximately 5 minutes before and 3 hours after the last dose from Compound A-treated mice. After obtaining plasma samples by centrifugation, the analysis for plasma concentrations of Compound A was conducted by the liquid chromatography-tandem mass spectrometry (LC/MS/MS) method. The UPLC system (Acquity, Waters) equipped with a mass spectrometer (Quattro premier, MICROMASS) was used for quantification of Compound A. The concentrations are plotted (n=5) in FIG. 7A. Each bar represents a mean of plasma concentration in each group.

CCN(c1cc(-c2ccc(CN3CCOCC3)cc2)cc(C(=O)NCc2c(C)cc(C)[nH]c2=O)c1C)C1CCOCC1 [Compound A]
sensitivity of cell proliferation (HS-SY-II cells): highly sensitive; also recorded: high sensitivity
sensitivity of cell proliferation (SW982 cells): are not; also recorded: did not; also recorded: not sensitive
ATF3 and EGR1 expression ([1]; HS-SY-II in vitro culture): upregulated
CDKN2A expression ([1]; HS-SY-II in vitro culture): Dose- and time-dependent CDKN2A upregulation
CDKN2A expression change, significance 0 uM vs. ([1]; HS-SY-II, 1 uM, day 2): **
ATF3 expression change, significance 0 uM vs. ([1]; HS-SY-II, 1 uM, day 4): *
CDKN2A expression change, significance 0 uM vs. ([1]; HS-SY-II, 1 uM, day 4): ****
ATF3 expression change, significance 0 uM vs. ([1]; HS-SY-II, 1 uM, day 7): **
CDKN2A expression change, significance 0 uM vs. ([1]; HS-SY-II, 1 uM, day 7): ****
EGR1 expression change, significance 0 uM vs. ([1]; HS-SY-II, 1 uM, day 7): **
plasma concentrations [2]: Dose dependent exposure
